Legend:
Format in all cases: cell-based, Pseudomonas aeruginosa
P. aeruginosa PA14 = assay: Checkerboard microdilution assay (growth inhibition synergy)
Description: (§1) The checkerboard microdilution assay is used for evaluation of in vitro antimicrobial synergy between two compounds (i.e., antibiotic/PRMSE, antibiotic/pure phenolic compound, and pure phenolic compounds with each other). Two-fold serial dilutions are prepared in MHB-II for each of the two compounds under study. The serial dilutions are then loaded into 96 well plates to achieve combinations having different concentrations of each of the two compounds. Each well is subsequently inoculated with 10^6 CFU mL^−1 of the desired bacterial strain and incubated at 37° C. for 18 h under static conditions. The Fractional Inhibitory Concentration Index (FICI) for each combination is calculated by using the following formula: FICcomponent 1=MICcomponent 1, in combination/MICcomponent 1,alone FICI=FICcomponent 1+FICcomponent 2
(§2) The FICIs are interpreted as follows: FICI of […] (synergy); 0.5<FICI ≤1 (no interaction/indifference); FICI of >4 (antagonism).

P. aeruginosa PAO1 = assay: as above
Description: as §1, §2

[1] = system: proton motive force-driven multidrug efflux pump of P. aeruginosa PA14; assay: Ethidium bromide (EtBr) efflux assay; details: PRMSE, catechol at 0.25 times the MIC; CCCP 100 μM; untreated cells 30.9
Description: (§3) An overnight grown culture of each strain is diluted 1:100 using MHB-II broth to a final volume of 10 mL and grown to an OD600 of 0.8-1.0 (at 37° C., 150 rpm). […] The tubes are incubated for 1 h (37° C., 150 rpm). The inoculum is then adjusted to 0.4 OD600 with MHB-II broth containing 5 μM EtBr and 2 mL aliquots of this mixture are pelleted (5000×g, 10 min at 4° C.). The pellets are incubated on ice immediately, resuspended in 1 mL of MHB-II, and aliquoted (200 μL) into a polystyrene 96 well black, clear-bottom plate (Corning™, Fisher Scientific, ON, Canada). EtBr efflux from the cells is monitored at room temperature using the microplate reader (ex/em 530/600 nm). Readings are taken at 5 min intervals for 1 h to monitor efflux pump activity. The background fluorescence of the medium is subtracted from all measurements and the assay is repeated independently in triplicate.

[2] = system: proton motive force-driven multidrug efflux pump of P. aeruginosa PAO1; assay: Ethidium bromide (EtBr) efflux assay; details: PRMSE, catechol at 0.25 times the MIC; CCCP 100 μM; untreated cells 37.6
Description: as §3

[3] = ciprofloxacin in combination with the labelled phenolic constituent
[4] = labelled constituent + gallic acid, * = synergistic
[5] = labelled constituent combined with gallic acid
[6] = labelled phenolic constituent in combination with ciprofloxacin

Question: For `Oc1ccccc1O` [catechol, 1,2-dihydroxybenzene], which FIC of ciprofloxacin (P. aeruginosa PA14; [3]) is on record?
Answer: Its FIC of ciprofloxacin is 0.25.

Question: And the “FICI, gallic acid” value (P. aeruginosa PA14; [4])?
Answer: The value was 0.37*.

Question: And the “FIC, gallic acid” value (P. aeruginosa PA14; [5])?
Answer: Its value is 0.25.

Question: What about the FIC of compound (P. aeruginosa PA14; [6]) of the same compound?
Answer: Its FIC of compound is 0.25.

Question: What about the FIC of ciprofloxacin (P. aeruginosa PAO1; [3]) of the same compound?
Answer: Its FIC of ciprofloxacin is 0.25.

Question: And the “FICI, gallic acid” value (P. aeruginosa PAO1; [4])?
Answer: Its value is 0.5*.

Question: And the “FIC, gallic acid” value (P. aeruginosa PAO1; [5])?
Answer: The value was 0.25.

Question: What about the FIC of compound (P. aeruginosa PAO1; [6]) of the same compound?
Answer: The FIC of compound was 0.25.

Question: What about the Efflux pump activity [1] of the same compound?
Answer: Its Efflux pump activity is 29.9%.

Question: And the “% EtBr efflux” value [2]?
Answer: Its value is 35.8%.

Source: patent US10206906B2, “Synergistic combination of a phenolic-rich maple syrup extract and an antibiotic” (priority 2015, dated 2019)
